Numbered stars: 1 amine (or outer) side, 2 acyl side, 3 side chain; on linkers, the order of the positions; unused ones are H or OH. Square brackets hold non-standard residues; d marks the D form. Peptide text beside a SMILES is read from it. * marks the point of attachment. ACHPA = O=C(C[C@H](O)[C@H](CC1CCCCC1)N[*:1])[*:2]; Sta = CC(C)C[C@H](N)[C@@H](O)CC(=O)O; hhPhe = N[C@@H](CCCc1ccccc1)C(=O)O; hPhe = N[C@@H](CCc1ccccc1)C(=O)O; Isovaleryl = CC(C)CC(=O)*; Boc = CC(C)(C)OC(=O)*
What was measured:
human plasma renin = target: T1, human plasma renin (Homo sapiens, UniProt P00797); experiment: Human plasma renin assay; assay type: biochemical; conditions: read-out: Human Plasma I50
T1 construct: Further assays measured human plasma renin and dog plasma renin; from tissue; host or cells: human plasma
T1 sequence (P00797 67-406): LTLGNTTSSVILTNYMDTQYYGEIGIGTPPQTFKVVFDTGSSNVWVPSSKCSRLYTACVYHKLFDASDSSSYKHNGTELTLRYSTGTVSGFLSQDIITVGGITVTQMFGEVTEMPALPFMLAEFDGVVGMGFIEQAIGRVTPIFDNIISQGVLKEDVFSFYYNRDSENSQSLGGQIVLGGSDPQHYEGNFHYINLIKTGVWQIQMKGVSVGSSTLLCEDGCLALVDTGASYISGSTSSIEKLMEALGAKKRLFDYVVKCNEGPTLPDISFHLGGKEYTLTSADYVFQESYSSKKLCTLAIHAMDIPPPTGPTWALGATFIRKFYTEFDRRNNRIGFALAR
Procedure: (§1) Assays were carried out in order to determine the inhibitory potency of the peptides of the present invention. One assay measured the inhibition of hog kidney renin, and was in accordance with the procedure described in Rich et al., J. Med. Chem. 23: 27, 1980, except that a pH of 7.3 was used. Another assay measured the inhibition of human kidney renin purified as described in Bangham, D. R., Robertson, I., Robinson, J. I. S., Robinson, C. J., and Tree, M., Clinical Science and Molecular Medicine, 48 (Supp. 2): 136s-159s (1975), and further purified by affinity chromatography on pepstatin-aminohexyl-Sepharase as described in Poe, M., Wu., J. K., Florance, J. R., Radkey, J. A., Bennett, C. D., and Hoogsteen, K., J. Biol. Chem. 258: 2209-2216 (1983). The assay was also in accordance with Poe et al. cited above. Further assays measured human plasma renin and dog plasma renin in accordance with procedures described in Boger et al, Nature, 303: 81-84 (1983).

dog plasma renin = target: T2, dog plasma renin (Canis lupus familiaris, UniProt Q6DYE7); experiment: Dog plasma renin assay; assay type: biochemical; conditions: read-out: Dog Plasma I50
T2 construct: Further assays measured human plasma renin and dog plasma renin; from tissue; host or cells: dog plasma
T2 sequence (Q6DYE7 66-403): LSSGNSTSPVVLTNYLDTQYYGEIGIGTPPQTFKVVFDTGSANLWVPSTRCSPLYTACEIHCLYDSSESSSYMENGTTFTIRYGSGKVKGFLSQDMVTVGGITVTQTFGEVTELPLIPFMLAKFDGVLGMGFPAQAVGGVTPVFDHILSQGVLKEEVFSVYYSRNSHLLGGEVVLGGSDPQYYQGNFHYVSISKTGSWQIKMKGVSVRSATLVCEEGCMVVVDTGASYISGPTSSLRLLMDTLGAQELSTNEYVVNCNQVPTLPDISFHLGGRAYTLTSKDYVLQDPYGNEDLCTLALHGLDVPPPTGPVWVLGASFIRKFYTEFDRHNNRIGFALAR
Procedure: as §1

human kidney renin = target: T3, human kidney renin (Homo sapiens, UniProt P00797); experiment: Inhibition of purified human kidney renin; assay type: biochemical; conditions: dissociation constant of the inhibited enzyme-inhibitor complex
T3 construct: human kidney renin purified as described in Bangham; from tissue; host or cells: human kidney
T3 sequence (P00797 67-406): T1 sequence (P00797 67-406)
Procedure: as §1
Results expressed as KI values refer to the dissociation constant of the inhibited enzyme-inhibitor complex. This KI value was obtained as described above. Pepstatin was used as an active control.

hog renin = conditions: after the injection of hog renin into nephrectomized rats (Gross et al.); cited from earlier work

Row | IC50 (human plasma renin) [nM] | IC50 (dog plasma renin) [nM] | Ki (human kidney renin) [nM] | Compound | blood pressure in vivo (hog renin)
1 | 4 | 16 | 0.39 | COC(=O)[C@H](Cc1ccccc1)NC(=O)[C@H](CC(C)C)NC(=O)C[C@H](O)[C@H](CC1CCCCC1)NC(=O)[C@H](Cc1c[nH]cn1)NC(=O)[C@H](CCc1ccccc1)NC(=O)OC(C)(C)C [BOC--HomoPhe--His--ACHPA--Leu--Phe--OCH3, BocHPhe--His--ACHPA--Leu--Phe--OCH3] (Boc-[hPhe]H[ACHPA]LF-OMe) | –
2 | – | 320 | 90 | CC(C)CC(=O)N[C@@H](Cc1c[nH]cn1)C(=O)N1CCC[C@H]1C(=O)N[C@@H](CCCc1ccccc1)C(=O)N[C@@H](Cc1c[nH]cn1)C(=O)N[C@@H](CC(C)C)[C@@H](O)CC(=O)N[C@@H](CC(C)C)C(=O)N[C@@H](Cc1ccccc1)C(N)=O [N^α -Isovaleryl-L-Histidyl-L-Prolyl-L-Bishomophenylalanyl-L-Histidyl-(3S,4S)-Statyl-L-Leucyl-L-Phenylalanyl Amide] (Isovaleryl-HP[hhPhe]H[Sta]LF-NH2) | –
3 | 0.14 | 4.5 | 0.33 | CC(C)CC(=O)N[C@@H](Cc1c[nH]cn1)C(=O)N1CCC[C@H]1C(=O)N[C@@H](CCc1ccccc1)C(=O)N[C@@H](Cc1c[nH]cn1)C(=O)N[C@@H](CC(C)C)[C@@H](O)CC(=O)N[C@@H](CC(C)C)C(=O)N[C@@H](Cc1ccccc1)C(N)=O [N^α -Isovaleryl-L-Histidyl-L-Prolyl-L-Homophenylalanyl-L-Histidyl-(3S,4S)-Statyl-L-Leucyl-L-Phenylalanyl Amide] (Isovaleryl-HP[hPhe]H[Sta]LF-NH2) | –

The next lines start with the compound.

Row | Compound | IC50 (human plasma renin) [nM] | IC50 (dog plasma renin) [nM] | Ki (human kidney renin) [nM] | blood pressure in vivo (hog renin)
4 | CC(C)C[C@H](NC(=O)C[C@H](O)[C@H](CC1CCCCC1)NC(=O)[C@H](Cc1c[nH]cn1)NC(=O)[C@H](CCc1ccccc1)NC(=O)OC(C)(C)C)C(N)=O [BOC--HomoPhe--His--ACHPA--Leu--NH2, BocHPhe--His--ACHPA--Leu--NH2] | 3.9 | 100 | 1.17 | –
5 | COC(=O)[C@H](CC(C)C)NC(=O)C[C@H](O)[C@H](CC1CCCCC1)NC(=O)[C@H](Cc1c[nH]cn1)NC(=O)[C@H](CCc1ccccc1)NC(=O)OC(C)(C)C [BOC--HomoPhe--His--ACHPA--Leu--OCH3, BocHPhe--His--ACHPA--Leu--OCH3] | – | – | 0.98 | –
6 | pepstatin | – | – | – | reduce blood pressure

From patent US4668663A, “Renin inhibitors containing homophe^8” (Merck & Co., Inc., priority 1984, dated 1987)
